{
  "source": "patent US6346543B1",
  "about": "“Use of a taxoid to treat abnormal cell proliferation in the brain” (priority 1998, dated 2002)",
  "test": "Single i.v. bolus pharmacokinetic study in mice: plasma and brain levels by LC-MS/MS",
  "type": "in vivo, female C3H/HeN mice",
  "conditions": "mouse; for Plasma product (Ic) concentration: individual animals IV1-IV4",
  "method": "Analytical Results Obtained from a Single i.v. Bolus Pharmacokinetic Study in Mice.\nGroups of female C3H/HeN mice received the product by an intravenous route as a bolus at a dose level of 40 mg.kg^−1, equivalent to 120 mg.m^−2. Blood and brain samples were obtained from all dosed animals sacrificed at intervals up to 72 hours post dose. Brain and corresponding plasma samples were assayed for product (Ia) content by an LC-MS/MS assay.\n2.25 mg.ml^−1 solution containing 5% Polysorbate 80, 5% ethanol, and 90% of an aqueous 5% glucose solution.\nFifty-six female C3H/HeN mice, each weighing ca 20 g, were each administered formulated product II by i.v. bolus via the tail vein at an injection volume of 0.4 ml to give a total dose of 40 mg.kg^−1.\nBlood by cardiac puncture, and liver and brain by dissection after CO2 sacrifice.\nWhole blood was collected in heparinised tubes, and corresponding plasma samples were obtained by centrifugation, and frozen immediately at −20° C. Tissues were blotted, weighed, and frozen immediately at −20° C. All samples were dispatched frozen for analysis. Upon receipt, samples were stored frozen at approximately −18° C. pending analysis.\nLC-MS/MS (Sciex API III plus) in turbo-ionspray mode.\n75×4.6 mm Supelcosil ABZ plus (3 μm).\nAcetonitrile/methanol/ammonium acetate (10 mM); 40/25/35 v/v/v.\nPlasma: Added 100 μl of acetonitrile to sample (50 μl). Vortexed, centrifuged, removed supernatant, added 100 μl of mobile phase and injected 150 μl .\nBrain: Added 100 μl of acetonitrile to homogenised sample (100 mg of a 1:1 w/w brain with water homogenate) and vortexed. Added 1 ml of diethyl ether, vortexed, centrifuged, removed organic layer, and dried under N2. Reconstituted in 200 μl of mobile phase and injected 150 μl.\nPlasma: Nine at concentrations of 5, 10, 20, 50, 100, 200, 300, 400 & 500 ng.ml^−1 (product Ia). Prepared by adding suitable aliquots of the product (concentrations =0.1, 1 or 10 μg.ml^−1) in ethanol to 0.5 ml aliquots of mouse plasma. Each sample was vortexed following drug addition; a 50 μl aliquot was then removed for assay.\nBrain: Eleven at concentrations of 10, 20, 30, 100, 200, 300, 400, 500, 1000, 2500 & 5000 ng.g^−1 in homogenised mouse brain (1:1 w/w brain with water). Prepared by adding suitable aliquots of the product (concentrations=1, 10 or 100 μg.ml-^−1) in ethanol to 0.5, 1, 3 or 4 g of homogenised mouse brain. Each sample was vortexed following drug addition and a 100 mg aliquot was then removed for assay.\nA biexponential equation was fitted to the profiles using an interactive linear least-square algorithm as part of the SIPHAR package.",
  "key": {"[1]": {"conditions": "plasma, i.v. 40 mg.kg^−1, calculated from values ≧b.l.q. of 20 ng.ml^−1"}, "[2]": {"conditions": "plasma, i.v. 40 mg.kg^−1, calculated from values ≧l.o.d. of 4 ng.ml^−1"}},
  "note": "Values joined by “and” are separate entries in the source; they are usually repeats but may differ in a detail not shown here. Identical values can stand only once.",
  "data": [
    {"smiles": "CO[C@H]1C(=O)[C@]2(C)[C@@H](OC)C[C@H]3OC[C@@]3(OC(C)=O)[C@H]2[C@H](OC(=O)c2ccccc2)[C@]2(O)C[C@H](OC(=O)[C@H](O)[C@@H](NC(=O)OC(C)(C)C)c3ccccc3)C(C)=C1C2(C)C", "note": "[Product (Ia), 4α-acetoxy-2α-benzoyloxy-5β, 20-epoxy-1β-hydroxy-7β, 10β-dimethoxy-9-oxo-11-taxen-13α-yl (2R,3S)-3 tert-butoxycarbonylamino-2-hydroxy-3-phenylpropionate]", "values": [
      {"measurement": "AUC0-72h", "setting": "brain, i.v. 40 mg.kg^−1", "value": "*the corresponding AUC0-72h = 549.7 h.μg.g^−1"},
      {"measurement": "Terminal T½", "setting": "brain, i.v. 40 mg.kg^−1", "value": 31.4, "unit": "h"},
      {"measurement": "AUC0-∞", "setting": "brain, i.v. 40 mg.kg^−1, mean data, extrapolated from 72 h, listed as product (Ic)", "value": "787.", "unit": "g* h.μg.g^−1"},
      {"measurement": "Mean total plasma clearance", "setting": "i.v. 40 mg.kg^−1", "value": 1.3, "unit": "I.h^−1.kg^−1"},
      {"measurement": "levels in the brain relative to those in the plasma (on the basis of AUC0∞ values)", "setting": "i.v. 40 mg.kg^−1", "value": "about twenty"},
      {"measurement": "time post dose up to which plasma levels persisted above the limit of accurate quantification (20 ng.ml^−1)", "setting": "i.v. 40 mg.kg^−1", "value": "up to 14 h"},
      {"measurement": "time post dose up to which plasma levels were consistently above the limit of detection (4 ng.ml^−1)", "setting": "i.v. 40 mg.kg^−1", "value": "up to 24 h"},
      {"measurement": "Plasma product (Ic) concentration", "setting": "i.v. 40 mg.kg^−1, 2 min after dose", "value": "52987 ng/mL and 45942 ng/mL and 49607 ng/mL and 38994 ng/mL"},
      {"measurement": "Plasma product (Ic) concentration, MEAN", "setting": "i.v. 40 mg.kg^−1, 2 min after dose, mean of IV1-IV4", "value": 46882, "unit": "ng/mL"},
      {"measurement": "Plasma product (Ic) concentration", "setting": "i.v. 40 mg.kg^−1, 5 min after dose", "value": "36734 ng/mL and 33538 ng/mL and 32077 ng/mL and 34903 ng/mL"},
      {"measurement": "Plasma product (Ic) concentration, MEAN", "setting": "i.v. 40 mg.kg^−1, 5 min after dose, mean of IV1-IV4", "value": 34313, "unit": "ng/mL"},
      {"measurement": "Plasma product (Ic) concentration", "setting": "i.v. 40 mg.kg^−1, 15 min after dose", "value": "20493 ng/mL and 20897 ng/mL and 21051 ng/mL and 19459 ng/mL"},
      {"measurement": "Plasma product (Ic) concentration, MEAN", "setting": "i.v. 40 mg.kg^−1, 15 min after dose, mean of IV1-IV4", "value": 20475, "unit": "ng/mL"},
      {"measurement": "Plasma product (Ic) concentration", "setting": "i.v. 40 mg.kg^−1, 0.5 h after dose", "value": "10765 ng/mL and 10344 ng/mL and 9170 ng/mL and 11232 ng/mL"},
      {"measurement": "Plasma product (Ic) concentration, MEAN", "setting": "i.v. 40 mg.kg^−1, 0.5 h after dose, mean of IV1-IV4", "value": 10378, "unit": "ng/mL"},
      {"measurement": "Plasma product (Ic) concentration", "setting": "i.v. 40 mg.kg^−1, 0.75 h after dose", "value": "7133 ng/mL and 10948 ng/mL and 8121 ng/mL and 10148 ng/mL"},
      {"measurement": "Plasma product (Ic) concentration, MEAN", "setting": "i.v. 40 mg.kg^−1, 0.75 h after dose, mean of IV1-IV4", "value": 9087, "unit": "ng/mL"},
      {"measurement": "Plasma product (Ic) concentration", "setting": "i.v. 40 mg.kg^−1, 1 h after dose", "value": "6017 ng/mL and 7423 ng/mL and 6693 ng/mL and 6079 ng/mL"},
      {"measurement": "Plasma product (Ic) concentration, MEAN", "setting": "i.v. 40 mg.kg^−1, 1 h after dose, mean of IV1-IV4", "value": 6553, "unit": "ng/mL"},
      {"measurement": "Plasma product (Ic) concentration", "setting": "i.v. 40 mg.kg^−1, 4 h after dose", "value": "1072 ng/mL and 1110 ng/mL and 835 ng/mL and 830 ng/mL"},
      {"measurement": "Plasma product (Ic) concentration, MEAN", "setting": "i.v. 40 mg.kg^−1, 4 h after dose, mean of IV1-IV4", "value": 962, "unit": "ng/mL"},
      {"measurement": "Plasma product (Ic) concentration", "setting": "i.v. 40 mg.kg^−1, 6 h after dose", "value": "449 ng/mL and 316 ng/mL and 346 ng/mL and 336 ng/mL"},
      {"measurement": "Plasma product (Ic) concentration, MEAN", "setting": "i.v. 40 mg.kg^−1, 6 h after dose, mean of IV1-IV4", "value": 362, "unit": "ng/mL"},
      {"measurement": "Plasma product (Ic) concentration", "setting": "i.v. 40 mg.kg^−1, 8 h after dose", "value": "204 ng/mL and 199 ng/mL and 195 ng/mL and 154 ng/mL"},
      {"measurement": "Plasma product (Ic) concentration, MEAN", "setting": "i.v. 40 mg.kg^−1, 8 h after dose, mean of IV1-IV4", "value": 188, "unit": "ng/mL"},
      {"measurement": "Plasma product (Ic) concentration", "setting": "i.v. 40 mg.kg^−1, 14 h after dose", "value": "65 ng/mL and 56 ng/mL and 50 ng/mL and 52 ng/mL"},
      {"measurement": "Plasma product (Ic) concentration, MEAN", "setting": "i.v. 40 mg.kg^−1, 14 h after dose, mean of IV1-IV4", "value": 56, "unit": "ng/mL"},
      {"measurement": "Plasma product (Ic) concentration", "setting": "i.v. 40 mg.kg^−1, 24 h after dose, blq = below limit of accurate quantification (20 ng.ml^−1)", "value": "~18(blq) ng.ml^−1 and ~15(blq) ng.ml^−1 (2×) and ~16(blq) ng.ml^−1"},
      {"measurement": "Plasma product (Ic) concentration, MEAN", "setting": "i.v. 40 mg.kg^−1, 24 h after dose, mean of IV1-IV4 (all blq)", "value": 16, "unit": "ng/mL"},
      {"measurement": "Plasma product (Ic) concentration", "setting": "i.v. 40 mg.kg^−1, 48 h after dose, n.d. = not detected (≦l.o.d. of 4 ng.ml^−1)", "value": "~4(blq) ng.ml^−1"},
      {"measurement": "Plasma product (Ic) concentration, MEAN", "setting": "i.v. 40 mg.kg^−1, 48 h after dose, mean of IV1-IV4 (blq / n.d.)", "value": 2, "unit": "ng/mL"},
      {"measurement": "brain level, peak", "setting": "i.v. 40 mg.kg^−1, at 14 h", "value": 9.1, "unit": "µg/g"},
      {"measurement": "brain level", "setting": "i.v. 40 mg.kg^−1, last sampling time, 72 h", "value": 5.3, "unit": "µg/g"},
      {"measurement": "plasma level, peak (mean)", "setting": "i.v. 40 mg.kg^−1, peak at 2 minutes", "value": 46.9, "unit": "µg/mL"},
      {"measurement": "Plasma product (Ic) concentration", "setting": "i.v. 40 mg.kg^−1, time after dose printed as — (between 1 h and 4 h)", "value": "4633 ng/mL and 4337 ng/mL and 4600 ng/mL and 3564 ng/mL"},
      {"measurement": "Plasma product (Ic) concentration, MEAN", "setting": "i.v. 40 mg.kg^−1, time after dose printed as — (between 1 h and 4 h), mean of IV1-IV4", "value": 4283, "unit": "ng/mL"},
      {"measurement": "plasma level", "setting": "i.v. 40 mg.kg^−1, within 4 h", "value": "less than 1 μg.ml^−1"},
      {"measurement": "penetration of the blood brain barrier", "setting": "post-i.v. administration", "value": "appeared to readily penetrate the blood brain barrier"},
      {"measurement": "ClT (total plasma clearance)", "setting": "[1]", "value": "1.3 1.h^−1.kg^−1"},
      {"measurement": "Initial T½", "setting": "[1]", "value": 12, "unit": "min"},
      {"measurement": "Terminal T½", "setting": "[1]", "value": 2.0, "unit": "h"},
      {"measurement": "Vdss", "setting": "[1]", "value": "2.4 1.kg^−1"},
      {"measurement": "ClT (total plasma clearance)", "setting": "[2]", "value": "1.3 1.h^−1.kg^−1"},
      {"measurement": "Initial T½", "setting": "[2]", "value": 42, "unit": "min"},
      {"measurement": "Terminal T½", "setting": "[2]", "value": 6.2, "unit": "h"},
      {"measurement": "Vdss", "setting": "[2]", "value": "1.9 1.kg^−1"}
    ]}
  ]
}
